Bioavailability and Papp data for two molecules are collected here from ChEMBL document CHEMBL4396919, “Permeability of Cyclic Peptide Macrocycles and Cyclotides and Their Potential as Therapeutics” (ACS Med Chem Lett, 2019).

Structures are written as SMILES. *1 amine or outer side, *2 acyl side, *3 side chain or, on linkers, in order; H or OH if unused. Where a SMILES comes first, the peptide text is derived from it. [ ]: non-standard residue; d: D form. Ile(ψThz) = CC[C@H](C)[C@H](N[*:1])c1nc(C(=O)[*:2])cs1; NMeF = CN[C@@H](Cc1ccccc1)C(=O)O; Tle = CC(C)(C)[C@H](N)C(=O)O

One data set can be described thus: in vivo. The conditions noted are these: Wistar, rat, po, 10 mg/kg.
Another data set is described as follows: in vitro. The conditions noted are these: dog, MDCK.

Description for in vitro: Permeability in RRCK cells

With `CC[C@H](C)[C@@H]1NC(=O)[C@@H]2CCCN2C(=O)[C@H](Cc2ccccc2)NC(=O)[C@H](C)NC(=O)c2csc(n2)[C@H]([C@@H](C)CC)NC(=O)[C@@H]2CCCN2C1=O` (cyclo(AFPIP[Ile(ψThz)])), in the data set “in vivo”, the bioavailability (usually dose-corrected exposure relative to a reference, in per cent) at 8 h amounted to 7%. Besides, the apparent permeability coefficient (Papp) (usually a coefficient for how fast a substance crosses the barrier) in the data set “in vitro” came out at 0.7 ×10⁻⁶ cm/s.

`CC[C@H](C)[C@@H]1NC(=O)[C@@H]2CCCN2C(=O)[C@H](Cc2ccccc2)N(C)C(=O)[C@H](C(C)(C)C)NC(=O)c2csc(n2)[C@H]([C@@H](C)CC)NC(=O)[C@@H]2CCCN2C1=O` (cyclo(IP[Ile(ψThz)][Tle][NMeF]P)): in the data set “in vivo”, the bioavailability at 8 h amounted to 21%.
